Laboratory results: patent US20260174857A1, “METHODS OF ADJUVANT TREATMENT FOR ALLERGY IMMUNOTHERAPY” (Revelation Biosciences, Inc., priority 2022, published 2026)

Assays:
TLR4 [1] = molecular target: T1, TLR4 (Rattus norvegicus, UniProt Q9QX05); test: IL-6 and IL-10 cytokine response after IV administration in rats; type: in vivo
T1 construct: from tissue; host or cells: whole animal (rat), in vivo
T1 sequence (Q9QX05 26-835): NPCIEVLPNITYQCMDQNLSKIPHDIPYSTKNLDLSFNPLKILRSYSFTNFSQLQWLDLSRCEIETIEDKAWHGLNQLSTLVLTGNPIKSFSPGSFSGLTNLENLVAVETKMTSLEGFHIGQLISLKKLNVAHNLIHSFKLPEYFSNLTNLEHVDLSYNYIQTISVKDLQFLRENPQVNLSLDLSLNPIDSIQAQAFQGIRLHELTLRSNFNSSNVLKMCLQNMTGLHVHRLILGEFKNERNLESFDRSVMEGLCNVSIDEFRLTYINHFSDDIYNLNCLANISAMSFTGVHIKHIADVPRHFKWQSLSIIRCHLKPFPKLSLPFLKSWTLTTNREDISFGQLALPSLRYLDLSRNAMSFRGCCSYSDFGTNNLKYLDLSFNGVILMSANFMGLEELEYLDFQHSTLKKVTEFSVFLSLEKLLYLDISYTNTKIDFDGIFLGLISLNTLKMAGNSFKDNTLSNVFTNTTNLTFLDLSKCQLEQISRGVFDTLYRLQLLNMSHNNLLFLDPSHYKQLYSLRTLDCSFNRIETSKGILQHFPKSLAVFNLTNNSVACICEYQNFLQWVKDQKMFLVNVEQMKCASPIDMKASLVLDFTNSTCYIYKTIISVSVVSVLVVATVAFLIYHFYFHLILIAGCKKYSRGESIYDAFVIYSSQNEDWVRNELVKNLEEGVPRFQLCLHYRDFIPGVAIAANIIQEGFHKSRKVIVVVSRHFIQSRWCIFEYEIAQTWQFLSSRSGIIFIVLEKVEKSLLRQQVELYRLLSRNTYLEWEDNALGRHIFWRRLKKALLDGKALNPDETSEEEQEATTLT
From the text: (§1) IP-10 is an important cytokine associated with stimulation of the TRIF pathway. Evidence of IL-6 and IL-10 and IP-10 upregulation is confirmation that PHAD preparations as noted in this application are capable of TLR4 stimulation, with a bias toward stimulating the TRIF pathway, which is further confirmation of the amelioration or reduction of activity mediated through the MyD88 signaling pathway, which supports the amelioration of pro-inflammatory cytokine production.

TLR4 [2] = molecular target: T2, TLR4 (Mus musculus, UniProt Q9JHF9+Q9QUK6); test: in vitro cell based activity assay, IP-10 upregulation in mouse macrophages (J774 cell line)
T2 construct: endogenous in cells; host or cells: J774 mouse macrophage cell line
T2 sequence (Q9QUK6 26-835): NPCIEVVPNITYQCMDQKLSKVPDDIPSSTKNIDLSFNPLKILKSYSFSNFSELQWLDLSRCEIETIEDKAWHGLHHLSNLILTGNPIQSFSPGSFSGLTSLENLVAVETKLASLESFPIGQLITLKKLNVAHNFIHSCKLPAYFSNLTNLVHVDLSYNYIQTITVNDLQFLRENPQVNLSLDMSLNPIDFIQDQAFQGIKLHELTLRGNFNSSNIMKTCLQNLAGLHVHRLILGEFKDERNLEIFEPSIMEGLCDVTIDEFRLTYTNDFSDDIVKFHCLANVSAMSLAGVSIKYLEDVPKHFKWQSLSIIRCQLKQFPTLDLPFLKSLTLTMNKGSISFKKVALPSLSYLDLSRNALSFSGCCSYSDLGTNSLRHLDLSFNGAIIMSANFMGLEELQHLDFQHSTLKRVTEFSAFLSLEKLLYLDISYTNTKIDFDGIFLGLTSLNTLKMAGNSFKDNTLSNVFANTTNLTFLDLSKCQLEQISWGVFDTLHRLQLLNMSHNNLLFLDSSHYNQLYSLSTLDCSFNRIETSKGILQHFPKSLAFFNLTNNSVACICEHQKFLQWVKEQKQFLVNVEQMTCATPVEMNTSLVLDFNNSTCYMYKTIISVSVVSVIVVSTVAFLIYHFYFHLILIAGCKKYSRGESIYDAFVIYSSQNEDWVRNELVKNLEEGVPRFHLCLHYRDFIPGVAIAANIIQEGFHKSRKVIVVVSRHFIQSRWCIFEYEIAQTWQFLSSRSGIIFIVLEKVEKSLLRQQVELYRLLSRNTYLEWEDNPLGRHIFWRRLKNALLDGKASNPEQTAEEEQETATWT
T2 sequence (Q9JHF9 19-160): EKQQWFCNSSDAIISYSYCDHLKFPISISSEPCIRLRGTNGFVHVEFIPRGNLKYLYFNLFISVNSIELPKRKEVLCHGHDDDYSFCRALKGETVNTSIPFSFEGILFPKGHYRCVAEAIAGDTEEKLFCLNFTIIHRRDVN
From the text: Interferon-β is required for production of IP-10, therefore IP-10 is considered a surrogate marker for Type I interferon activity.
as §1

[3] = second dose at 24 hours, compared with first dose

## phosphorylated hexaacyl disaccharide [PHAD]
TLR4 [1]; [3]
  anti-inflammatory cytokines (e.g., IL-10) following a second dose: larger increase
  pro-inflammatory cytokines (e.g., IL-6) following a second dose: smaller increase
TLR4 [1]; two doses of PHAD, after first dose
  inflammatory and protective cytokines following a first dose: initial increase
TLR4 [2]
  upregulation of IP-10 as a result of TLR4 stimulation: IP-10 upregulation as a function of dose
